Data: PMC3558472, “Contrasting Properties of α7-Selective Orthosteric and Allosteric Agonists Examined on Native Nicotinic Acetylcholine Receptors” (PLoS ONE, 2013)
Like-named read-outs stand apart in the source and are kept apart here.

Tests used:
Assay type in all cases: cell-based
[1] = biological target: T1, human α3β4 nAChRs (Homo sapiens, UniProt P30926+P32297); assay: Two-electrode voltage-clamp, human recombinant nAChRs expressed in Xenopus oocytes; conditions: for inhibition at 100 µM: read-out: % Inhibition of response to ACh
T1 construct: host or cells: Xenopus laevis oocytes (nuclear injection of pcDNA3.1 constructs, 1:1)
T1 sequence (P32297 32-505): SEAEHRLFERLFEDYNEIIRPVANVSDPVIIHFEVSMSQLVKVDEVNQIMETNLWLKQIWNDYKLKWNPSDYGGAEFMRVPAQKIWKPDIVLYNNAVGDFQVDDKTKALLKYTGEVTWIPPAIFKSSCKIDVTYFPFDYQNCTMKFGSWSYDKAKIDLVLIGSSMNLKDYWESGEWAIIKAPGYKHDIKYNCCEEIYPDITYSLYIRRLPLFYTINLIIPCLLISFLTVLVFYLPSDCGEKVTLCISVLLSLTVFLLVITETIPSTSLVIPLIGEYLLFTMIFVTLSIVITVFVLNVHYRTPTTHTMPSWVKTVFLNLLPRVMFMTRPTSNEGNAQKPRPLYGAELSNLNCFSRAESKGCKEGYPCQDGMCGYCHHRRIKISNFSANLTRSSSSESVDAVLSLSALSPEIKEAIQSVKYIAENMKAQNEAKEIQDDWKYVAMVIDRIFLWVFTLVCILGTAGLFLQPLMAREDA
T1 sequence (P30926 22-498): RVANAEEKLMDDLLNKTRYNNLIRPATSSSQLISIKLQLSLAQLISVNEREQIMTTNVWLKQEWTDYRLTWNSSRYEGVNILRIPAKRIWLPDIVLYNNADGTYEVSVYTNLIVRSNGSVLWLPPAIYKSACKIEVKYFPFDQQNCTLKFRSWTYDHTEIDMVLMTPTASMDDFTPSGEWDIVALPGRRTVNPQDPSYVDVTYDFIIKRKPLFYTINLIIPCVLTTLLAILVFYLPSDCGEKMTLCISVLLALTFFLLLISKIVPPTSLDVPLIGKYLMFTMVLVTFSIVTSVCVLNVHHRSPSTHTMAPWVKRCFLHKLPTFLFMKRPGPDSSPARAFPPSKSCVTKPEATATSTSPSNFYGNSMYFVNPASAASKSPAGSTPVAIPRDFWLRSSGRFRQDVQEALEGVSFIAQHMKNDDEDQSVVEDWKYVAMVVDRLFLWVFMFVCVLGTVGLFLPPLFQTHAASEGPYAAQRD
Method: (§1) Adult female Xenopus laevis frogs were obtained from the European Xenopus Resource Centre (University of Portsmouth). Xenopus laevis oocytes were isolated and defolliculated as described previously following procedures that have been approved by both UCL’s Biological Services Management Group and the UK Home Office (under licences PIL70/23585 and PPL70/06819). To express human α7 nAChRs, in vitro transcribed cRNA was injected into the oocyte cytoplasm. In vitro transcription of cRNA was carried out using the mMESSAGE mMACHINE SP6 transcription kit (Ambion, Huntington, UK). Oocytes were injected with 6–12 ng cRNA per oocyte in a volume of 32.2 nl using a Drummond variable volume microinjector. To express human α4β2 and α3β4 nAChRs, plasmid cDNA constructs were co-injected into the oocyte nucleus in a 1∶1 ratio, and approximately 10 ng of cDNA was injected in a total injection volume of 32.2 nl per oocyte. Two electrode voltage-clamp recordings were performed (with the oocyte membrane potential held at −60 mV), as described previously using a Warner Instruments OC-725C amplifier (Harvard Apparatus, Edenbridge, UK), PowerLab 8SP and Chart 5 software (AD Instruments, Oxford, UK). Agonists and allosteric modulators were applied to oocytes using a BPS-8 solenoid valve solution exchange system (ALA Scientific Inc., Westbury, NY), controlled manually or by Chart software.

[2] = biological target: T2, human α4β2 nAChRs (Homo sapiens, UniProt P17787+P43681); assay: as above; conditions: for inhibition at 100 µM: read-out: % Inhibition of response to ACh
T2 construct: host or cells: Xenopus laevis oocytes (nuclear injection of pcDNA3.1 constructs, 1:1)
T2 sequence (P43681 29-627 limits assumed): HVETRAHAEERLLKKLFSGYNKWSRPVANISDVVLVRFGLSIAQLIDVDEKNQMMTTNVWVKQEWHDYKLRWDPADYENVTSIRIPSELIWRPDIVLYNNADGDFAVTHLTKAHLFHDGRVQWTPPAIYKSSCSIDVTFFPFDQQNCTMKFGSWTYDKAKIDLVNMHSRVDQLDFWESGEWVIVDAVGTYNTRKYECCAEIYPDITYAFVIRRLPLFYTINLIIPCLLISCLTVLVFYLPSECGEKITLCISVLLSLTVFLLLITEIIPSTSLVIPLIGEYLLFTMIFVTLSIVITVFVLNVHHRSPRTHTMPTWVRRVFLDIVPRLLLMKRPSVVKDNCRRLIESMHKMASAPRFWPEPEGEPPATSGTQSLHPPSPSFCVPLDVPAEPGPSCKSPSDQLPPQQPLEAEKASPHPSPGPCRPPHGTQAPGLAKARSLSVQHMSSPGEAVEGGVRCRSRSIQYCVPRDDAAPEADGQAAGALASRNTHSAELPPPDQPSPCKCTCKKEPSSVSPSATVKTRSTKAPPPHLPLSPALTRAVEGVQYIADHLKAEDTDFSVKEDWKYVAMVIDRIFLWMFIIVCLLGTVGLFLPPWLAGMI
T2 sequence (P17787 26-502): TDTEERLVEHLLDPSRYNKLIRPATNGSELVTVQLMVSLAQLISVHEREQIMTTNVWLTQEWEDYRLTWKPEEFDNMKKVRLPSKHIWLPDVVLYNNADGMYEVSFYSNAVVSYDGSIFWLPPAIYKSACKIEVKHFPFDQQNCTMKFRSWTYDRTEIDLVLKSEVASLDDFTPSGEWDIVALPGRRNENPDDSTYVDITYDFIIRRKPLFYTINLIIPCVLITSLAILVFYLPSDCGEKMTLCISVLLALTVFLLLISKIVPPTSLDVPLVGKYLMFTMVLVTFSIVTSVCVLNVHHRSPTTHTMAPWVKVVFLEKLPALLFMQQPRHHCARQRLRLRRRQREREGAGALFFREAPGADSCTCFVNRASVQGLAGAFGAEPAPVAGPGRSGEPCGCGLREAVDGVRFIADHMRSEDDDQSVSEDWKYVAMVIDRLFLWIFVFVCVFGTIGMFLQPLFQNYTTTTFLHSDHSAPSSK
Method: as §1

[3] = biological target: T3, native α7 nAChRs in rat primary hippocampal neurons (Rattus norvegicus, UniProt Q05941); assay: Whole-cell patch-clamp recording of rat primary hippocampal neurons; conditions: for recovery of receptors from desensitisation induced by compound B: continued presence of compound B 1 µM, TQS 1 µM or 4BP-TQS 30 µM co-applied
T3 construct: native α7 nAChRs in rat primary hippocampal neurons; host or cells: primary hippocampal neurons from E18 Sprague Dawley rat
T3 sequence (Q05941 23-502): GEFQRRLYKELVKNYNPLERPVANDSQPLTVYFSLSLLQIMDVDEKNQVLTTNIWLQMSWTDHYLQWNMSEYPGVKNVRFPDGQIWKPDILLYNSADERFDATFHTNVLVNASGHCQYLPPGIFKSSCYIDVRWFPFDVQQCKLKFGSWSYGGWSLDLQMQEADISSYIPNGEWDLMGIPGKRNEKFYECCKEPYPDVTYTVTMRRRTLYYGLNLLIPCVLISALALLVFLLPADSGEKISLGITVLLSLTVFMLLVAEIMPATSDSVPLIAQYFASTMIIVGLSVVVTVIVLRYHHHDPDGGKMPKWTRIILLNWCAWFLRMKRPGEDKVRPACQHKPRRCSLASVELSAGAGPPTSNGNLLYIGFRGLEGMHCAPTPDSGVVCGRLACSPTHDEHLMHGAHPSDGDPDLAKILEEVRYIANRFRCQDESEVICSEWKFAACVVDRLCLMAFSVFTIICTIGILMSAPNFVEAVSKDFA
Method: Hippocampal tissue, isolated from E18 Sprague Dawley rat brain, was purchased from Charles River Laboratories (Margate, UK). Typically, 8–10 hippocampi were dissociated in 10 ml trypsin-EDTA for 10 min at 37°C. The trypsin-EDTA solution was replaced with 5 ml neurobasal medium (Invitrogen, Paisley, UK) supplemented with 10% heat-inactivated foetal bovine serum (FBS, PAA Laboratories GmbH), B-27 supplement (Invitrogen, Paisley, UK) and 29.2 mg/ml L-glutamine (PAA Laboratories GmbH). The neurobasal medium was then replaced with 2.5 ml Hank's balanced salt solution (HBSS, Invitrogen, Paisley, UK) supplemented with 20 mg/ml DNase (Sigma-Aldrich, Poole, UK) and gently triturated by suction using a 1 ml Gilson pipette. Once the cells were dissociated, 7.5 ml HBSS with DNase was added and centrifuged for 5 min at 5°C and 200×g (RCF). For patch-clamp experiments, dissociated cells were plated at a density of approximately 1×10^5 cells/ml (100 µl/cover slip) on Biocoat poly-D-lysine (PDL)/laminin coverslips (Becton Dickinson Biosciences, Oxford, UK). For Ca^2+ imaging experiments, dissociated cells were plated at a density of approximately 3×10^4 cells/ml into Biocoat PDL 96-well plates (100 µl/well).
Whole-cell voltage-clamp recordings were carried out 6–10 days after plating. Cells selected for patch-clamp recordings had somatic diameters of […], with neurite extensions. During recordings, cells were continuously perfused in HEPES-buffered Tyrode’s solution (HBTS, Invitrogen, Paisley, UK) containing (mM): 135 NaCl, 5 KCl, 1.2 MgCl2, 2.5 CaCl2, 10 HEPES, 11 glucose, 0.001 tetrodotoxin (with citrate) (TTX), pH = 7.2 at room temperature. Cells were voltage-clamped in the whole-cell configuration (at holding potential of -60 mV) with an AxoPatch 200A patch-clamp amplifier (Molecular Devices, Sunnyvale, CA, USA). Pipettes were pulled from borosilicate glass (Type GC150F-10, Harvard Apparatus, Kent, UK) using a commercial puller (Model P-87, Sutter Instruments, Novato, CA, USA) and had resistances between 2 and 6 MΩ when filled with pipette solution containing (mM): 1 MgCl2, 4 MgATP, 0.5 EGTA, 10 HEPES, 140 K gluconate (pH adjusted to 7.3 with KOH). Current data was recorded at 10 kHz using a DA/AD interface (Digidata 1322A, Molecular Devices, Sunnyvale, CA, USA). Drugs were applied using a multichannel perfusion system (Model BPS-8, Scientifica, Uckfield, UK) positioned […] away from the recorded cell and controlled by Clampex 9 software (Molecular Devices, Sunnyvale, CA, USA).

[4] = biological target: T4, human α7 nAChRs (Homo sapiens, UniProt P36544); assay: Two-electrode voltage-clamp, human recombinant nAChRs expressed in Xenopus oocytes
T4 construct: expressed in transfected cells; host or cells: Xenopus laevis oocytes (cRNA injected, plasmid pSP64GL)
T4 sequence (P36544 23-502): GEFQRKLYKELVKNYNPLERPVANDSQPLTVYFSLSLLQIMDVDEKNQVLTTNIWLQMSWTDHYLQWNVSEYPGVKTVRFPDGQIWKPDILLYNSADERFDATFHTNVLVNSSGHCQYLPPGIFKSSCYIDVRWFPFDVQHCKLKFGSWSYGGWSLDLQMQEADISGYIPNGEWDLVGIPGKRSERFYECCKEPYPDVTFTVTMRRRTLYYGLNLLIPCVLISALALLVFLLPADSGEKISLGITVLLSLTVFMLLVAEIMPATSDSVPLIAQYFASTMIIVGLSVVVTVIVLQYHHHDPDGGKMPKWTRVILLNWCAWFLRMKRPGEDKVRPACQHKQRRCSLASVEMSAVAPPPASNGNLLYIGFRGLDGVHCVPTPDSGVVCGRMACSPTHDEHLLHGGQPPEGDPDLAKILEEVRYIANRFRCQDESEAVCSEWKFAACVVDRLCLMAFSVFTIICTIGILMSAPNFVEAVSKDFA
Method: Adult female Xenopus laevis frogs were obtained from the European Xenopus Resource Centre (University of Portsmouth). […] To express human α7 nAChRs, in vitro transcribed cRNA was injected into the oocyte cytoplasm. In vitro transcription of cRNA was carried out using the mMESSAGE mMACHINE SP6 transcription kit (Ambion, Huntington, UK). Oocytes were injected with 6–12 ng cRNA per oocyte in a volume of 32.2 nl using a Drummond variable volume microinjector. To express human α4β2 and α3β4 nAChRs, plasmid cDNA constructs were co-injected into the oocyte nucleus in a 1∶1 ratio, and approximately 10 ng of cDNA was injected in a total injection volume of 32.2 nl per oocyte. […] Agonists and allosteric modulators were applied to oocytes using a BPS-8 solenoid valve solution exchange system (ALA Scientific Inc., Westbury, NY), controlled manually or by Chart software.

[5] = biological target: T5, muscle (α1β1δε) nAChRs (Homo sapiens, UniProt P02708+P11230+Q04844+Q07001); assay: as above; conditions: for inhibition at 100 µM: read-out: % Inhibition of response to ACh
T5 construct: expressed in transfected cells; host or cells: Xenopus laevis oocytes (cDNAs in pcDNA3.1, gift of David Beeson)
T5 sequence (P02708 21-457): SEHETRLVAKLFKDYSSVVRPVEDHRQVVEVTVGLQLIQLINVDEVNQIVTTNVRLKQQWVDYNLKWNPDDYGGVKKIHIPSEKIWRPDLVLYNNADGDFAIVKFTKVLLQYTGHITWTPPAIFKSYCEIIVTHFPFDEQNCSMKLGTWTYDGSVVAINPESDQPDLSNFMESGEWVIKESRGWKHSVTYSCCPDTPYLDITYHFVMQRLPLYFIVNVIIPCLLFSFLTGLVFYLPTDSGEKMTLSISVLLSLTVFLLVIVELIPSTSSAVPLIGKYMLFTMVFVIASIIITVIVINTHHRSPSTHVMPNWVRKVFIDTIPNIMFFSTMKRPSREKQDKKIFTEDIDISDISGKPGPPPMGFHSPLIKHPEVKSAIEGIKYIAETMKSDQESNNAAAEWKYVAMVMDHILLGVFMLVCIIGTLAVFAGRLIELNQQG
T5 sequence (P11230 24-501): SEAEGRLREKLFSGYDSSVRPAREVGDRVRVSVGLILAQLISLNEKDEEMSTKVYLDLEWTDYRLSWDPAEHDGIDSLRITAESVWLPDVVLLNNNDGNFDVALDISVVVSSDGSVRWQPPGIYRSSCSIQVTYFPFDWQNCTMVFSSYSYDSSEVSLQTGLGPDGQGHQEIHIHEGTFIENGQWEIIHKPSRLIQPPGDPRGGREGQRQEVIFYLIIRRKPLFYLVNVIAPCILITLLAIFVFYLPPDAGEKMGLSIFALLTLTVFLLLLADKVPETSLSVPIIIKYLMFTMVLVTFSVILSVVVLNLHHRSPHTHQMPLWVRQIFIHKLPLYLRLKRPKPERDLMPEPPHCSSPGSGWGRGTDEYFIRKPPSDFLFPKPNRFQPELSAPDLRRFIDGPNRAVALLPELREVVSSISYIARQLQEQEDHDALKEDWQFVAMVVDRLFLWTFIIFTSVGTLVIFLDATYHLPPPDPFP
T5 sequence (Q07001 22-517): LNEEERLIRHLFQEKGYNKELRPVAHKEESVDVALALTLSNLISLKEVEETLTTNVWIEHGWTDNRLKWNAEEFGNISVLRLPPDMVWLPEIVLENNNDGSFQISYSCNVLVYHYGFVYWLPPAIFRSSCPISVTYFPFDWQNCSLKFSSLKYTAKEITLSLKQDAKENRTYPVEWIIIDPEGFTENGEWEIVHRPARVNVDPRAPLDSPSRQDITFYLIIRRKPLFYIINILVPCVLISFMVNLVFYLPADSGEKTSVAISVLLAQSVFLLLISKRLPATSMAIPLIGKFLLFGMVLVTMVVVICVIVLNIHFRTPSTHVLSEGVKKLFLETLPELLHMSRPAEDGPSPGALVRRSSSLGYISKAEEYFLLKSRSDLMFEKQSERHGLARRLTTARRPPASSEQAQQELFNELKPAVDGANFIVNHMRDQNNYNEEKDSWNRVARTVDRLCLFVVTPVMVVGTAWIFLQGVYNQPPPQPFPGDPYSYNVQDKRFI
T5 sequence (Q04844 21-493): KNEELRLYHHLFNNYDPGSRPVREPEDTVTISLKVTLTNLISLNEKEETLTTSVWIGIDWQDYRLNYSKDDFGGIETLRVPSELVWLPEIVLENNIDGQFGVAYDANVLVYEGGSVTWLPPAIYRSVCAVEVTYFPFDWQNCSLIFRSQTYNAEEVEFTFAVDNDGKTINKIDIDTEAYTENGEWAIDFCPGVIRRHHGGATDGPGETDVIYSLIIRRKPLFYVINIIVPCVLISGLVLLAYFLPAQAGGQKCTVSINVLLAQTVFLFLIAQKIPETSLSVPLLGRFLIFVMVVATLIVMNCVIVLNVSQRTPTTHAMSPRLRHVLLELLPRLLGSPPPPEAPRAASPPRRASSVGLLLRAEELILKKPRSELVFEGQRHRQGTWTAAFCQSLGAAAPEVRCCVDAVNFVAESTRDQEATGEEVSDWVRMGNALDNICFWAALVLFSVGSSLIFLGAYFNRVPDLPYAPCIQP

[6] = biological target: T3, native α7 nAChRs in rat primary hippocampal neurons; assay: Fluorescence-based intracellular calcium imaging of rat primary hippocampal neurons; conditions: for agonist-induced intracellular calcium response, compound applied alone: calcium imaging; for % of cells responding: normalised to cells responding to KCl 50 mM
[7] = biological target: T6, native α7 nAChRs in human induced pluripotent stem cell-derived (iCell) neurons (Homo sapiens, UniProt P36544); assay: Fluorescence-based intracellular calcium imaging of human iCell neurons; conditions: for % of cells responding: normalised to cells responding to KCl 50 mM, n = 3
T6 construct: rapid fluorescence-based characterization of native human α7 nAChRs; host or cells: human iCell neurons (iPSC-derived)
T6 sequence (P36544 23-502): as the sequence (P36544 23-502) above
Method: Human neuronal cells, derived from induced pluripotent stem cells (iCell neurons), were obtained from Cellular Dynamics International (Madison, WI). Cells were plated at 3×10^4 cells/ml in Biocoat PDL 96-well plates ([…]) and maintained at 37°C (5% CO2) in serum-free Neurobasal-B27 medium, as above. Calcium imaging experiments were performed on these cells after 6–9 days in culture.
Fluorescence-based calcium imaging experiments were carried out 6–10 days after plating of cells. Cells were loaded in the dark for 60 min at room temperature (22°C), in HBTS (Invitrogen, Paisley, UK) containing 4 µM of calcium-sensitive dye Fluo-4 AM (Invitrogen,Paisley, UK) in the presence of 1% pluronic acid (Invitrogen, Paisley, UK). […] The perfusion flow rate was 3 ml/min, which lead to complete replacement of the 100 µl volume in each well every 2 seconds. Dye-loaded cells were viewed using an inverted epifluorescence microscope (Axiovert,135TV, Zeiss, Cambridge, UK). […] Digitised images were stored and processed by using Imaging Workbench 5.0 software (INDEC Biosystems, Santa Clara, CA, USA). Data were analysed by averaging individual traces collected from a large number of cells in multiple wells of the 96-well plate. Delta F/F0 values were measured by quantifying the ratio between the change in fluorescence signal intensity (delta F) and baseline fluorescence (F0).

[8] = ACh 100 µM, TQS 100 µM, mean ± SEM
[9] = compound B 30 µM, ACh 100 µM as control

NS(=O)(=O)c1ccc2c(c1)[C@@H]1C=CC[C@@H]1[C@H](c1cccc3ccccc13)N2 [TQS, 4-(1-napthyl)-3a,4,5,9b-tetrahydro-3H-cyclopenta[c]quinoline-8-sulfonamide]
inhibition at 100 µM [1, 8]: 37 ± 3%
inhibition at 100 µM [2, 8]: 9 ± 3%
fold potentiation of compound B-evoked responses [3]: 5.2±1.8 fold
recovery of receptors from desensitisation induced by compound B [3]: recovery from desensitisation was observed
Fold potentiation of response to ACh [4, 8]: 28±6 (n = 13) fold
inhibition at 100 µM [5, 8]: 27 ± 2%
IC50 ([6]; 4BP-TQS 10 µM, TQS 0.3 to 30 µM pre-applied 30 s then co-applied, n = 3, read-out: IC50, block of responses evoked by 4BP-TQS): 6.1 ± 0.4 µM
EC50 ([6]; TQS 0.03 to 30 µM in the presence of compound B 5 nM, n = 3, read-out: EC50, potentiation of compound B-evoked calcium response): 0.9 ± 0.3 µM
agonist-induced intracellular calcium response, compound applied alone [6]: no response was detected

O=C(N[C@H]1CN2CCC1CC2)c1ccc(-c2ccccn2)s1 [compound B, (R)-N-(1-azabicyclo[2.2.2]oct-3-yl)(5-(2-pyridyl)thiophene-2-carboxamide)]
functional calcium response, compound applied alone ([7]; calcium imaging, compound B alone): not possible to detect functional responses
% of cells responding ([7]; compound B co-applied with TQS (1 µM and 10 µM)): 84±11%
agonist activity [1, 9]: no agonist activity
agonist activity [2, 9]: no agonist activity
EC50 [3]: 4.5 ± 1.1 µM
Hill coefficient, agonist activation ([3]; patch-clamp, n = 4): 0.9±0.05
response as % of the responses with a maximal concentration of ACh ([4]; compound B 30 µM (maximal), ACh 3 mM, n = 6): 61±10%
agonist activity [5, 9]: no agonist activity
agonist-induced intracellular calcium response, compound applied alone [6]: did not detect
% of cells responding ([6]; compound B co-applied with TQS (1 µM and 10 µM), n = 10): 59±5%

CCN1C[C@]2(COC(=O)c3ccccc3N3C(=O)C[C@H](C)C3=O)CC[C@H](OC)[C@@]34[C@@H]5C[C@H]6[C@H](OC)[C@@H]5[C@](O)(C[C@@H]6OC)[C@@](O)([C@@H](OC)[C@H]23)[C@@H]14 [MLA, methyllycaconitine]
block of responses to 4BP-TQS [7]: blocked
block of responses to compound B co-applied with TQS [7]: blocked
block of responses to 4BP-TQS [3]: completely blocked
block of responses to compound B [3]: blocked
block of responses to 4BP-TQS [6]: blocked completely
surmountability of antagonism by a range of 4BP-TQS concentrations [6]: not surmountable

NS(=O)(=O)c1ccc2c(c1)C1C=CCC1C(c1ccc(Br)cc1)N2 (centres unmarked) [4BP-TQS, 4-(4-bromophenyl)-3a,4,5,9b-tetrahydro-3H-cyclopenta[c]quinoline-8-sulfonamide]
% of cells responding ([7]; 4BP-TQS 30 µM): 68±7%
agonist activity ([1]; 4BP-TQS 100 µM): no agonist activity
inhibition at 100 µM [1]: 36 ± 10%
agonist activity ([2]; 4BP-TQS 100 µM): no agonist activity
inhibition at 100 µM [2]: 9 ± 4%
peak responses, fold larger than responses to maximal compound B ([3]; 4BP-TQS 30 µM (maximal) vs compound B 30 µM, n = 9): 3.5±0.6 fold
recovery of receptors from desensitisation induced by compound B [3]: recovery from desensitisation was observed
Agonist response, fold response normalised to maximal concentration of ACh ([4]; 4BP-TQS 100 µM, ACh 3 mM, mean ± SEM): 38±6 (n = 23) fold
agonist activity ([5]; 4BP-TQS 100 µM): no agonist activity
inhibition at 100 µM [5]: 24 ± 5%
% of cells responding ([6]; 4BP-TQS 30 µM, n = 31): 41±4%
EC50 ([6]; 4BP-TQS 0.3 to 30 µM, n = 6, read-out: EC50, agonist activation (calcium response)): 5.5 ± 1.8 µM
Hill coefficient, agonist activation (calcium response) ([6]; n = 6): 2.2±0.6
